# Source: patent US11945822B2, “Pyrazolo-triazine and/or pyrazolo-pxrimidine derivatives as selective inhibitor of cyclin dependent kinase” (QURIENT CO., LTD., priority 2018, dated 2024)
# System: H460
# Assay: Cellular H460 viability assay (CellTiter-Glo, 72 hours)
# Type: cell-based
# Details: Homo sapiens, NCI-H460
# Outline: (§1)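 72 h treatment, 37 °C, 5% CO2; DMSO ctrl, final <0.1%; CellTiter-Glo luminescence; n=2.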
row,IC50 [µM],Compound
1,< 1,CNC(=O)c1ccc2nn(-c3ccccc3CNc3nc(N4CCC(N)CC4)nc4c(C(C)C)cnn34)cc2c1 [Compound 14]
2,< 1,CC(C)c1cnn2c(NCc3c(Cl)cccc3-n3cccn3)nc(N3CCC(N)CC3)nc12 [Compound 38]
3,< 1,CC(C)c1cnn2c(NCc3c(F)cccc3-n3cccn3)nc(N3CCC(N)CC3)nc12 [Compound 42]

# Target: T1, CDK2/Cyclin A (Homo sapiens, UniProt P24941)
# T1 construct: purchased Invitrogen PV6290
# Assay: Enzymatic assay for CDK2 (FRET based LANCE Ultra kinase assay)
# Type: biochemical
# Details: read-out: CDK2 enzymatic activity (IC50 range)
# Outline: (§2)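 LANCE Ultra TR-FRET: ULight-MBP peptide (68 nM) with ATP at Km, […], 60 min at 23° C. EDTA plus Eu-anti-phospho-MBP added, another 60 min, then 665/615 nm emission read. Compounds tested as 8-dose 4-fold DMSO dilutions.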
row,IC50 [µM],Compound
1,0.1 to 1,CNC(=O)c1ccc2nn(-c3ccccc3CNc3nc(N4CCC(N)CC4)nc4c(C(C)C)cnn34)cc2c1 [Compound 14]
2,> 1,CC(C)c1cnn2c(NCc3c(Cl)cccc3-n3cccn3)nc(N3CCC(N)CC3)nc12 [Compound 38]
3,0.1 to 1,CC(C)c1cnn2c(NCc3c(F)cccc3-n3cccn3)nc(N3CCC(N)CC3)nc12 [Compound 42]

# Target: T2, CDK5/p25 (Homo sapiens, UniProt Q00535)
# T2 construct: purchased Invitrogen PR8543B
# Assay: Enzymatic assay for CDK5 (FRET based LANCE Ultra kinase assay)
# Type: biochemical
# Details: read-out: CDK5 enzymatic activity (IC50 range)
# Outline: as §2
# T2 sequence (Q00535 whole entry): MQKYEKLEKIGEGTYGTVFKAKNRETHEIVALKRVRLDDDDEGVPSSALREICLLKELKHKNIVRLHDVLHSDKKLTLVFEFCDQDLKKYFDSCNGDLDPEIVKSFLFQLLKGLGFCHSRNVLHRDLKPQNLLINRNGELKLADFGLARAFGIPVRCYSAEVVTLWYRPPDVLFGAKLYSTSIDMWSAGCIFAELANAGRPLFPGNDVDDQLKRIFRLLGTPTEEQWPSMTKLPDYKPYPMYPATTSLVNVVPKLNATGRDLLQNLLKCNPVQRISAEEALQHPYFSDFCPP
# T2 sequence (Q15078 99-307 partner limits assumed): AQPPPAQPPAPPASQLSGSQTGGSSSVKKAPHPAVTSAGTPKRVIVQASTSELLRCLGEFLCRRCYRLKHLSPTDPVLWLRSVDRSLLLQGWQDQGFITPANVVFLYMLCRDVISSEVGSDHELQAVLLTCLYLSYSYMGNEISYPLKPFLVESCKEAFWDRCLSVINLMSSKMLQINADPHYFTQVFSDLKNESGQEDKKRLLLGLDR
row,IC50 [µM],Compound
1,0.1 to 1,CNC(=O)c1ccc2nn(-c3ccccc3CNc3nc(N4CCC(N)CC4)nc4c(C(C)C)cnn34)cc2c1 [Compound 14]
2,0.1 to 1,CC(C)c1cnn2c(NCc3c(Cl)cccc3-n3cccn3)nc(N3CCC(N)CC3)nc12 [Compound 38]
3,0.1 to 1,CC(C)c1cnn2c(NCc3c(F)cccc3-n3cccn3)nc(N3CCC(N)CC3)nc12 [Compound 42]

# System: MV4-11
# Assay: Cellular MV4-11 viability assay (CellTiter-Glo, 72 hours)
# Type: cell-based
# Details: Homo sapiens
# Outline: as §1
row,IC50 [µM],Compound
1,< 1,CNC(=O)c1ccc2nn(-c3ccccc3CNc3nc(N4CCC(N)CC4)nc4c(C(C)C)cnn34)cc2c1 [Compound 14]
2,< 1,CC(C)c1cnn2c(NCc3c(Cl)cccc3-n3cccn3)nc(N3CCC(N)CC3)nc12 [Compound 38]
3,< 1,CC(C)c1cnn2c(NCc3c(F)cccc3-n3cccn3)nc(N3CCC(N)CC3)nc12 [Compound 42]

# System: HCT116
# Assay: Cellular HCT116 viability assay (CellTiter-Glo, 72 hours)
# Type: cell-based
# Details: Homo sapiens, HCT-116
# Outline: as §1
row,IC50 [µM],Compound
1,< 1,CNC(=O)c1ccc2nn(-c3ccccc3CNc3nc(N4CCC(N)CC4)nc4c(C(C)C)cnn34)cc2c1 [Compound 14]

# System: MOLT-4
# Assay: Cellular MOLT-4 viability assay (CellTiter-Glo, 72 hours)
# Type: cell-based
# Details: Homo sapiens, MOLT4 viability assay
# Outline: as §1
row,IC50 [µM],Compound
1,1 to 10,CC(C)c1cnn2c(NCc3c(Cl)cccc3-n3cccn3)nc(N3CCC(N)CC3)nc12 [Compound 38]
2,1 to 10,CC(C)c1cnn2c(NCc3c(F)cccc3-n3cccn3)nc(N3CCC(N)CC3)nc12 [Compound 42]

# Target: T3, CDK1/Cyclin B (Homo sapiens, UniProt P06493)
# T3 construct: purchased Invitrogen PR4768C
# Assay: Enzymatic assay for CDK1 (FRET based LANCE Ultra kinase assay)
# Type: biochemical
# Details: read-out: CDK1 enzymatic activity (IC50 range)
# Outline: as §2
# T3 sequence (P06493 whole entry): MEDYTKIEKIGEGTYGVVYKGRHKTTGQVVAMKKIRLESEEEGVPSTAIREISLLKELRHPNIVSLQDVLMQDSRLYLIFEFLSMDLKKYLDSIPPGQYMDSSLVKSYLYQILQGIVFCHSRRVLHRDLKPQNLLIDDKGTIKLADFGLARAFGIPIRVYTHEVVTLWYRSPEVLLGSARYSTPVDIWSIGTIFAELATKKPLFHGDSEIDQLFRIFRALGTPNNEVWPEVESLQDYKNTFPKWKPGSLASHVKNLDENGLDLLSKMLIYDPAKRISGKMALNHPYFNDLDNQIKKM
# T3 sequence (P14635 whole entry partner): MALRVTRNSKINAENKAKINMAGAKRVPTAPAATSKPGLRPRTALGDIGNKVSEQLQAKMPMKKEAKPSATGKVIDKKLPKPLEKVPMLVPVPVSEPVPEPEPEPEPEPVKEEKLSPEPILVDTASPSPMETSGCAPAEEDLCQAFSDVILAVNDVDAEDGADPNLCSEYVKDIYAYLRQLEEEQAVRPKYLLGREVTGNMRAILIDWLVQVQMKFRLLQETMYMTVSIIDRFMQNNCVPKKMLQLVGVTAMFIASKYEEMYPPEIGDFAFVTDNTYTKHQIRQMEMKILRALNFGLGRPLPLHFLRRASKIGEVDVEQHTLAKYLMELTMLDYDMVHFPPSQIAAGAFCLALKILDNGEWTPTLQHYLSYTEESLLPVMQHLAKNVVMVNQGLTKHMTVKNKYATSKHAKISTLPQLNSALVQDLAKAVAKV
row,IC50 [µM],Compound
1,0.1 to 1,CNC(=O)c1ccc2nn(-c3ccccc3CNc3nc(N4CCC(N)CC4)nc4c(C(C)C)cnn34)cc2c1 [Compound 14]
2,> 1,CC(C)c1cnn2c(NCc3c(Cl)cccc3-n3cccn3)nc(N3CCC(N)CC3)nc12 [Compound 38]
3,> 1,CC(C)c1cnn2c(NCc3c(F)cccc3-n3cccn3)nc(N3CCC(N)CC3)nc12 [Compound 42]

# Target: T4, CDK7/Cyclin H/MNAT1 (Homo sapiens, UniProt P50613)
# T4 construct: purchased Invitrogen PR6749B
# Assay: Enzymatic assay for CDK7 (FRET based LANCE Ultra kinase assay)
# Type: biochemical
# Details: CDK7 over CDK1
# Outline: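 LANCE Ultra TR-FRET kinase assay using a ULight-labeled peptide substrate and a Eu-labeled anti-phospho antibody, with ATP at its Km. Purified CDK/cyclin complex was added to compound after brief centrifugation.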
# T4 sequence (P50613 whole entry): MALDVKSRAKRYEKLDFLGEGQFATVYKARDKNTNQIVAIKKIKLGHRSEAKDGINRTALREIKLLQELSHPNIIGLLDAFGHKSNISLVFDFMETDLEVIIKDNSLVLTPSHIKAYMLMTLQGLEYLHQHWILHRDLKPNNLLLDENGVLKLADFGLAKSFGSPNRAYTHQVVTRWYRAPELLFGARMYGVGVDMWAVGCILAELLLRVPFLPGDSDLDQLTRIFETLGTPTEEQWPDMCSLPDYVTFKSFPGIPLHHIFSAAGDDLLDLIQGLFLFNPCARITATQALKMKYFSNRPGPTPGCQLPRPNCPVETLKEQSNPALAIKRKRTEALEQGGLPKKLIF
# T4 sequence (P51946 whole entry partner): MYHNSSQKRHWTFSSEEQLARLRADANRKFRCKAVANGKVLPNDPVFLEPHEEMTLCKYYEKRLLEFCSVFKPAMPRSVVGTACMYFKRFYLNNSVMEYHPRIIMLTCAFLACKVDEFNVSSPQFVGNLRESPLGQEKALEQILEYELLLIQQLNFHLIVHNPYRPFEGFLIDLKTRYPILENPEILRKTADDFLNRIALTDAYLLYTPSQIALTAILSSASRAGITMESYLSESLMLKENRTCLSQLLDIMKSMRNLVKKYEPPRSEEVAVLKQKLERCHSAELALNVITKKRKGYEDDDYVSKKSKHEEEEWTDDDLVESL
# T4 sequence (P51948 whole entry partner): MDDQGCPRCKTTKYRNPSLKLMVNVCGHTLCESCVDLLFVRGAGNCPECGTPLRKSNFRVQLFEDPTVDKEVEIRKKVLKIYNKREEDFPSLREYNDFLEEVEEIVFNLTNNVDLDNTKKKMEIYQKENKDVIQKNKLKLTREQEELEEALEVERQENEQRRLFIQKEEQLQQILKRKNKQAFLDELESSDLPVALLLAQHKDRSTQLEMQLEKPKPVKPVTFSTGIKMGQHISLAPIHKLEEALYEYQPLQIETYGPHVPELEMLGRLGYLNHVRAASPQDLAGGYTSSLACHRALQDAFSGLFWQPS
row,CDK1/CDK7: Selectivity of CDK7 inhibition over CDK1 inhibition,Compound
1,A (A=greater than 200 fold),CNC(=O)c1ccc2nn(-c3ccccc3CNc3nc(N4CCC(N)CC4)nc4c(C(C)C)cnn34)cc2c1 [Compound 14]
2,A (A=greater than 200 fold),CC(C)c1cnn2c(NCc3c(Cl)cccc3-n3cccn3)nc(N3CCC(N)CC3)nc12 [Compound 38]
3,A (A=greater than 200 fold),CC(C)c1cnn2c(NCc3c(F)cccc3-n3cccn3)nc(N3CCC(N)CC3)nc12 [Compound 42]

# Same assay, conditions: CDK7 over CDK2
row,CDK2/CDK7: Selectivity of CDK7 inhibition over CDK2 inhibition,Compound
1,A (A=greater than 200 fold),CC(C)c1cnn2c(NCc3c(Cl)cccc3-n3cccn3)nc(N3CCC(N)CC3)nc12 [Compound 38]
2,A (A=greater than 200 fold),CC(C)c1cnn2c(NCc3c(F)cccc3-n3cccn3)nc(N3CCC(N)CC3)nc12 [Compound 42]

row,Compound,CDK2/CDK7: Selectivity of CDK7 inhibition over CDK2 inhibition
1,CNC(=O)c1ccc2nn(-c3ccccc3CNc3nc(N4CCC(N)CC4)nc4c(C(C)C)cnn34)cc2c1 [Compound 14],"B (B=less than 200 fold, but greater than 20 fold)"

# Same assay, conditions: CDK7 over CDK5
row,Compound,CDK5/CDK7: Selectivity of CDK7 inhibition over CDK5 inhibition
1,CNC(=O)c1ccc2nn(-c3ccccc3CNc3nc(N4CCC(N)CC4)nc4c(C(C)C)cnn34)cc2c1 [Compound 14],"B (B=less than 200 fold, but greater than 20 fold)"
2,CC(C)c1cnn2c(NCc3c(Cl)cccc3-n3cccn3)nc(N3CCC(N)CC3)nc12 [Compound 38],"B (B=less than 200 fold, but greater than 20 fold)"
3,CC(C)c1cnn2c(NCc3c(F)cccc3-n3cccn3)nc(N3CCC(N)CC3)nc12 [Compound 42],"B (B=less than 200 fold, but greater than 20 fold)"

# Same assay, conditions: read-out: CDK7 enzymatic activity (IC50 range)
row,IC50 [µM],Compound
1,< 0.1,CNC(=O)c1ccc2nn(-c3ccccc3CNc3nc(N4CCC(N)CC4)nc4c(C(C)C)cnn34)cc2c1 [Compound 14]
2,< 0.1,CC(C)c1cnn2c(NCc3c(Cl)cccc3-n3cccn3)nc(N3CCC(N)CC3)nc12 [Compound 38]
3,< 0.1,CC(C)c1cnn2c(NCc3c(F)cccc3-n3cccn3)nc(N3CCC(N)CC3)nc12 [Compound 42]

# System: RPMI-8226
# Assay: Cellular RPMI-8226 viability assay (CellTiter-Glo, 72 hours)
# Type: cell-based
# Details: Homo sapiens
# Outline: as §1
row,IC50 [µM],Compound
1,< 1,CNC(=O)c1ccc2nn(-c3ccccc3CNc3nc(N4CCC(N)CC4)nc4c(C(C)C)cnn34)cc2c1 [Compound 14]
2,< 1,CC(C)c1cnn2c(NCc3c(Cl)cccc3-n3cccn3)nc(N3CCC(N)CC3)nc12 [Compound 38]
3,< 1,CC(C)c1cnn2c(NCc3c(F)cccc3-n3cccn3)nc(N3CCC(N)CC3)nc12 [Compound 42]

# System: MM.1S
# Assay: Cellular MM.1S viability assay (CellTiter-Glo, 72 hours)
# Type: cell-based
# Details: Homo sapiens, MM1.S
# Source text: Human T-cell acute lymphoblastic leukemia cell line, MOLT-4 (ATCC, Cat #CRL-1582), Human multiple myeloma cell line, RPMI-8226 (Invitrogen, Cat #22400-089) and MM.1S (ATCC, Cat #CRL-2974), NSCLC (Non-small cell lung cancer) cell line H460 (ATCC, Cat #HTB-177), Human colon colorectal carcinoma cell line HCT116 (ATCC, Cat #CCL-247), Human acute monocytic leukemia cell line MV4-11 (ATCC, Cat #CRL-9591), OVCAR-3 (ATCC, Cat #HTB-161) and A2780 (ECACC, Cat #93112519) were obtained from ATCC. Cells were grown in RPMI-1640 media (Invitrogen, Cat #22400-089) supplemented with 10% FBS (Invitrogen, Cat #10099141) and 1% penicillin/streptomycin (Invitrogen, Cat #15070063) and cultured at 37° C., 5% CO2 in a humidified chamber. All cell lines were routinely tested for mycoplasma.
# The effect of the CDK7 inhibitor to inhibit the growth of target cancer cells was evaluated through the 72 hours time period of viability assay. Briefly, the candidate cell line ware plated in 96 well plate at the following density of cells respectively. 1×10^4 cells/well for MOLT-4, RPMI-8226, MV4-11 and MM.1S, 5×10^3 for H460, HCT116 and OVCAR-3 and IX 10^3 for A2780. After 24 hours, the cells were treated with various concentrations of the compound (ranging from 0.0015 uM to 10 uM). DMSO solvent without compound served as a control and final DMSO concentration less than 0.1%. After 72 hours of incubation at 37° C., 5% CO2 incubator, cells were analyzed for the viability using the CellTiter-Glo Luminescent Cell Viability Assay (Promega, Cat #G7570). All viability assays were performed in duplicate and Luminescence was read using an Envision (Perkin Elmer, USA). Data was analyzed using XLfit software.
row,IC50 [µM],Compound
1,≤ 1,CNC(=O)c1ccc2nn(-c3ccccc3CNc3nc(N4CCC(N)CC4)nc4c(C(C)C)cnn34)cc2c1 [Compound 14]
2,≤ 1,CC(C)c1cnn2c(NCc3c(Cl)cccc3-n3cccn3)nc(N3CCC(N)CC3)nc12 [Compound 38]
3,≤ 1,CC(C)c1cnn2c(NCc3c(F)cccc3-n3cccn3)nc(N3CCC(N)CC3)nc12 [Compound 42]
